Experimental data reported in US20020137929A1, “1 - (3-heterocyclylphenyl) isothiourea, -isourea, -guanidine and -amidine herbicidal agents” (Intellectual Property Department, BASF Aktiengesellschaft, priority 1998, published 2002).

Key:
[1] = test system: MOOVA (Monochoria); test: Preemergence weed control under flooded paddy conditions; format: in vivo, Monochoria vaginalis; conditions: rated 3-4 weeks after treatment
Outline: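 Using flooded silt loam (water 1.5 to 3 cm deep), seeds sown in the top 0.5 cm were exposed preemergence to compound pipetted into the flood at about 0.0313 to 0.500 kg/ha. Effects were scored 0-9 by eye three to four weeks later.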

[2] = test system: CYPIR (Rice Flatsedge); test: as above; format: in vivo, Cyperus iria; conditions: rated 3-4 weeks after treatment
Outline: (§1)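 Seeds or propagules sown in top 0.5 cm of silt loam soil, flooded 1.5 to 3 cm above surface throughout. Compound in 50/50 v/v aqueous/acetone pipetted into flood water at about 0.0313 to 0.500 kg/ha. Visual 0-9 rating versus control after three to four weeks in greenhouse.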

[3] = test system: GALAP (Galium); test: Postemergence herbicidal evaluation; format: in vivo, Galium aparine; conditions: postemergence
Outline: (§2)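 Compound is applied as a foliar spray to seedlings about two weeks old, formulated in equal parts acetone and water with 0.5% TWEEN 20 and delivered at 40 psi to give about 0.0156–0.500 kg per hectare. Injury is rated visually 0–9 after four to five weeks.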

[4] = test system: ECHORC (Watergrass (Calif.)); test: Preemergence weed control under flooded paddy conditions; format: in vivo, Echinochloa oryzoides; conditions: rated 3-4 weeks after treatment
Outline: as §1

[5] = test system: IPOHE (Morningglory, Ivyleaf); test: Preemergence herbicidal evaluation; format: in vivo, Ipomoea hederacea; conditions: rated 4-5 weeks after treatment
Outline: (§3)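 In this greenhouse assay, monocot and dicot seeds are planted in soil and treated prior to emergence with an aqueous acetone spray (about 0.0156-0.500 kg/ha). Plants are assessed visually against control on a 0-9 scale after 4-5 weeks.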

[6] = test system: ABUTH (Velvetleaf); test: Preemergence herbicidal evaluation; format: in vivo, Abutilon theophrasti; conditions: rated 4-5 weeks after treatment
Outline: as §3

[7] = test system: ECHORC (Watergrass (Calif.)); test: Postemergence weed control under flooded paddy conditions; format: in vivo, Echinochloa oryzoides; conditions: postemergence weeds, 3-4 weeks after treatment
Outline: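 Weeds 3 to 5 cm tall and rice seedlings at the 1.5 to 2.5 leaf stage were flooded, with water held 1.5 to 3 cm above the soil. Compounds in 50/50 v/v aqueous/acetone went into the flood water at about 0.0313 to 0.500 kg/ha. Visual 0-9 ratings versus control were made 3 to 4 weeks later.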

[8] = test system: SETVI (Foxtail, Green); test: Postemergence herbicidal evaluation; format: in vivo, Setaria viridis; conditions: postemergence
Outline: as §2

[9] = test system: TRZAWR (Wheat, Winter, cv Riband); test: Postemergence herbicidal evaluation; format: in vivo, Triticum aestivum; conditions: postemergence
Outline: as §2

[10] = test system: SETVI (Foxtail, Green); test: Preemergence herbicidal evaluation; format: in vivo, Setaria viridis; conditions: rated 4-5 weeks after treatment
Outline: as §3

[11] = test system: ZEAMX (Corn, Field); test: Preemergence herbicidal evaluation; format: in vivo, Zea mays; conditions: rated 4-5 weeks after treatment
Outline: as §3

[12] = test system: SAGPY (Arrowhead (Pygmaea)); test: Postemergence weed control under flooded paddy conditions; format: in vivo, Sagittaria pygmaea; conditions: postemergence weeds, 3-4 weeks after treatment
Text: Results of herbicide evaluation are expressed on a rating scale (0-9). The scale is based upon a visual observation of plant stand, vigor, malformation, size, chlorosis and overall plant appearance as compared with a control.
Plastic containers containing weeds which are 3 to 5 cm tall and rice seedlings at the 1.5 to 2.5 leaf stage are flooded with water. The water is maintained at 1.5 to 3 cm above the soil surface for the duration of the experiment. Test compounds are applied as aqueous/ acetone mixtures 50/50 v/v directly into the flood water to provide the equivalent of about 0.0313 to 0.500 kg/ha of active ingredient. The treated containers are placed on greenhouse benches and cared for in accordance with conventional greenhouse procedures. Three to four weeks after treatment, the test is terminated and each container is examined and herbicidal effect rated according to the rating system provided in Example 37. The compounds evaluated are reported by compound number given in Example 37.

[13] = test system: ECHCG (Barnyardgrass); test: Preemergence herbicidal evaluation; format: in vivo, Echinochloa crus-galli; conditions: rated 4-5 weeks after treatment
Outline: as §3

## CN1C(=O)CS/C1=N/c1cc(-n2c(=O)cc(C(F)(F)F)n(C)c2=O)c(F)cc1Cl [Compound 7]
[1]; 0.0313 kg/ha
  Herbicidal rating MOOVA: 9.0
[1]; 0.0625 kg/ha
  Herbicidal rating MOOVA: 9.0
[1]; 0.1250 kg/ha
  Herbicidal rating MOOVA: 9.0
[1]; 0.2500 kg/ha
  Herbicidal rating MOOVA: 9.0
[2]; 0.0313 kg/ha
  Herbicidal rating CYPIR: 8.0
[2]; 0.0625 kg/ha
  Herbicidal rating CYPIR: 9.0
[2]; 0.1250 kg/ha
  Herbicidal rating CYPIR: 9.0
[2]; 0.2500 kg/ha
  Herbicidal rating CYPIR: 9.0
[3]; rate 0.0157 kg/ha
  GALAP herbicidal rating: 3.0
[3]; rate 0.0313 kg/ha
  GALAP herbicidal rating: 4.0
[3]; rate 0.0625 kg/ha
  GALAP herbicidal rating: 5.0
[3]; rate 0.1250 kg/ha
  GALAP herbicidal rating: 9.0
[4]; 0.0313 kg/ha
  Herbicidal rating ECHORC: 8.0
[4]; 0.0625 kg/ha
  Herbicidal rating ECHORC: 9.0
[4]; 0.1250 kg/ha
  Herbicidal rating ECHORC: 9.0
[4]; 0.2500 kg/ha
  Herbicidal rating ECHORC: 9.0
[5]; rate 0.0313 kg/ha
  IPOHE preemergence herbicidal rating: 4.0
[5]; rate 0.0625 kg/ha
  IPOHE preemergence herbicidal rating: 4.0
[5]; rate 0.1250 kg/ha
  IPOHE preemergence herbicidal rating: 9.0
[5]; rate 0.2500 kg/ha
  IPOHE preemergence herbicidal rating: 9.0
[6]; rate 0.0157 kg/ha
  ABUTH preemergence herbicidal rating: 9.0
[6]; rate 0.0313 kg/ha
  ABUTH preemergence herbicidal rating: 9.0
[6]; rate 0.0625 kg/ha
  ABUTH preemergence herbicidal rating: 9.0
[6]; rate 0.1250 kg/ha
  ABUTH preemergence herbicidal rating: 9.0
[6]; rate 0.2500 kg/ha
  ABUTH preemergence herbicidal rating: 9.0
[7]; rate 0.0313 kg/ha
  Herbicidal rating ECHORC: 7.0
[7]; rate 0.0625 kg/ha
  Herbicidal rating ECHORC: 8.5
[7]; rate 0.1250 kg/ha
  Herbicidal rating ECHORC: 9.0
[7]; rate 0.2500 kg/ha
  Herbicidal rating ECHORC: 9.0
[8]; rate 0.0157 kg/ha
  SETVI herbicidal rating: 5.0
[8]; rate 0.0313 kg/ha
  SETVI herbicidal rating: 4.0
[8]; rate 0.0625 kg/ha
  SETVI herbicidal rating: 9.0
[8]; rate 0.1250 kg/ha
  SETVI herbicidal rating: 9.0
[9]; rate 0.0157 kg/ha
  TRZAWR herbicidal rating: 4.5
[9]; rate 0.0313 kg/ha
  TRZAWR herbicidal rating: 3.0
[9]; rate 0.0625 kg/ha
  TRZAWR herbicidal rating: 5.0
[9]; rate 0.1250 kg/ha
  TRZAWR herbicidal rating: 6.0
[10]; rate 0.0157 kg/ha
  SETVI preemergence herbicidal rating: 9.0
[10]; rate 0.0313 kg/ha
  SETVI preemergence herbicidal rating: 9.0
[10]; rate 0.0625 kg/ha
  SETVI preemergence herbicidal rating: 9.0
[10]; rate 0.1250 kg/ha
  SETVI preemergence herbicidal rating: 9.0
[10]; rate 0.2500 kg/ha
  SETVI preemergence herbicidal rating: 9.0
[11]; rate 0.0157 kg/ha
  ZEAMX preemergence herbicidal rating: 7.0
[11]; rate 0.0313 kg/ha
  ZEAMX preemergence herbicidal rating: 8.0
[11]; rate 0.0625 kg/ha
  ZEAMX preemergence herbicidal rating: 8.5
[11]; rate 0.1250 kg/ha
  ZEAMX preemergence herbicidal rating: 8.5
[11]; rate 0.2500 kg/ha
  ZEAMX preemergence herbicidal rating: 9.0
[12]; rate 0.0313 kg/ha
  Herbicidal rating SAGPY: 3.0
[12]; rate 0.0625 kg/ha
  Herbicidal rating SAGPY: 5.5
[12]; rate 0.1250 kg/ha
  Herbicidal rating SAGPY: 7.5
[12]; rate 0.2500 kg/ha
  Herbicidal rating SAGPY: 8.5
[13]; rate 0.0157 kg/ha
  ECHCG preemergence herbicidal rating: 5.0
[13]; rate 0.0313 kg/ha
  ECHCG preemergence herbicidal rating: 9.0
[13]; rate 0.0625 kg/ha
  ECHCG preemergence herbicidal rating: 9.0
[13]; rate 0.1250 kg/ha
  ECHCG preemergence herbicidal rating: 9.0
[13]; rate 0.2500 kg/ha
  ECHCG preemergence herbicidal rating: 9.0

## CCC1SC(=Nc2cc(N3C(=O)C4=C(CCCC4)C3=O)c(F)cc2Cl)N(C)C1=O (centres unmarked) [Compound 6, N-{4-chloro-5-[(5-ethyl-3-methyl-4-oxo-2-thiazolidinylidene)amino]-2-fluorophenyl}-1-cyclohexene-1,2-dicarboximide]
[1]; 0.0313 kg/ha
  Herbicidal rating MOOVA: 2.0
[1]; 0.0625 kg/ha
  Herbicidal rating MOOVA: 8.0
[1]; 0.1250 kg/ha
  Herbicidal rating MOOVA: 8.0
[1]; 0.2500 kg/ha
  Herbicidal rating MOOVA: 9.0
[1]; 0.5000 kg/ha
  Herbicidal rating MOOVA: 9.0
[2]; 0.0313 kg/ha
  Herbicidal rating CYPIR: 0.0
[2]; 0.0625 kg/ha
  Herbicidal rating CYPIR: 2.0
[2]; 0.1250 kg/ha
  Herbicidal rating CYPIR: 4.0
[2]; 0.2500 kg/ha
  Herbicidal rating CYPIR: 6.0
[2]; 0.5000 kg/ha
  Herbicidal rating CYPIR: 7.0
[3]; rate 0.0157 kg/ha
  GALAP herbicidal rating: 0.0
[3]; rate 0.0313 kg/ha
  GALAP herbicidal rating: 0.0
[3]; rate 0.0625 kg/ha
  GALAP herbicidal rating: 0.0
[3]; rate 0.1250 kg/ha
  GALAP herbicidal rating: 2.0
[3]; rate 0.2500 kg/ha
  GALAP herbicidal rating: 7.0
[3]; rate 0.5000 kg/ha
  GALAP herbicidal rating: 9.0
[4]; 0.0313 kg/ha
  Herbicidal rating ECHORC: 0.0
[4]; 0.0625 kg/ha
  Herbicidal rating ECHORC: 0.0
[4]; 0.1250 kg/ha
  Herbicidal rating ECHORC: 2.0
[4]; 0.2500 kg/ha
  Herbicidal rating ECHORC: 7.0
[4]; 0.5000 kg/ha
  Herbicidal rating ECHORC: 7.0
[6]; rate 0.1250 kg/ha
  ABUTH preemergence herbicidal rating: 0.0
[6]; rate 0.2500 kg/ha
  ABUTH preemergence herbicidal rating: 0.0
[6]; rate 0.5000 kg/ha
  ABUTH preemergence herbicidal rating: 0.0
[7]; rate 0.0313 kg/ha
  Herbicidal rating ECHORC: 0.0
[7]; rate 0.0625 kg/ha
  Herbicidal rating ECHORC: 0.0
[7]; rate 0.1250 kg/ha
  Herbicidal rating ECHORC: 1.0
[7]; rate 0.2500 kg/ha
  Herbicidal rating ECHORC: 3.5
[7]; rate 0.5000 kg/ha
  Herbicidal rating ECHORC: 3.5
[8]; rate 0.0157 kg/ha
  SETVI herbicidal rating: 0.0
[8]; rate 0.0313 kg/ha
  SETVI herbicidal rating: 0.0
[8]; rate 0.0625 kg/ha
  SETVI herbicidal rating: 0.0
[8]; rate 0.1250 kg/ha
  SETVI herbicidal rating: 2.0
[8]; rate 0.2500 kg/ha
  SETVI herbicidal rating: 2.0
[8]; rate 0.5000 kg/ha
  SETVI herbicidal rating: 2.0
[9]; rate 0.0157 kg/ha
  TRZAWR herbicidal rating: 2.5
[9]; rate 0.0313 kg/ha
  TRZAWR herbicidal rating: 2.5
[9]; rate 0.0625 kg/ha
  TRZAWR herbicidal rating: 3.0
[9]; rate 0.1250 kg/ha
  TRZAWR herbicidal rating: 3.0
[9]; rate 0.2500 kg/ha
  TRZAWR herbicidal rating: 3.5
[9]; rate 0.5000 kg/ha
  TRZAWR herbicidal rating: 3.5
[10]; rate 0.1250 kg/ha
  SETVI preemergence herbicidal rating: 0.0
[10]; rate 0.2500 kg/ha
  SETVI preemergence herbicidal rating: 2.0
[11]; rate 0.1250 kg/ha
  ZEAMX preemergence herbicidal rating: 0.0
[11]; rate 0.2500 kg/ha
  ZEAMX preemergence herbicidal rating: 0.0
[11]; rate 0.5000 kg/ha
  ZEAMX preemergence herbicidal rating: 0.0
[12]; rate 0.0313 kg/ha
  Herbicidal rating SAGPY: 0.0
[12]; rate 0.0625 kg/ha
  Herbicidal rating SAGPY: 0.0
[12]; rate 0.1250 kg/ha
  Herbicidal rating SAGPY: 0.0
[12]; rate 0.2500 kg/ha
  Herbicidal rating SAGPY: 0.0
[12]; rate 0.5000 kg/ha
  Herbicidal rating SAGPY: 0.0
[13]; rate 0.1250 kg/ha
  ECHCG preemergence herbicidal rating: 0.0
[13]; rate 0.2500 kg/ha
  ECHCG preemergence herbicidal rating: 0.0
[13]; rate 0.5000 kg/ha
  ECHCG preemergence herbicidal rating: 2.0
